Data as given in article PMC8518382, “Identification of a Bromodomain‐like Region in 15‐Lipoxygenase‐1 Explains Its Nuclear Localization” (Angewandte Chemie (International Ed. in English), 2021).
Values joined by “and” are separate entries in the source; they are usually repeats but may differ in a detail not shown here. Identical values can stand only once.

Target: T1, 15-LOX-1 (Homo sapiens, UniProt P16050)
T1 sequence (P16050 1-662): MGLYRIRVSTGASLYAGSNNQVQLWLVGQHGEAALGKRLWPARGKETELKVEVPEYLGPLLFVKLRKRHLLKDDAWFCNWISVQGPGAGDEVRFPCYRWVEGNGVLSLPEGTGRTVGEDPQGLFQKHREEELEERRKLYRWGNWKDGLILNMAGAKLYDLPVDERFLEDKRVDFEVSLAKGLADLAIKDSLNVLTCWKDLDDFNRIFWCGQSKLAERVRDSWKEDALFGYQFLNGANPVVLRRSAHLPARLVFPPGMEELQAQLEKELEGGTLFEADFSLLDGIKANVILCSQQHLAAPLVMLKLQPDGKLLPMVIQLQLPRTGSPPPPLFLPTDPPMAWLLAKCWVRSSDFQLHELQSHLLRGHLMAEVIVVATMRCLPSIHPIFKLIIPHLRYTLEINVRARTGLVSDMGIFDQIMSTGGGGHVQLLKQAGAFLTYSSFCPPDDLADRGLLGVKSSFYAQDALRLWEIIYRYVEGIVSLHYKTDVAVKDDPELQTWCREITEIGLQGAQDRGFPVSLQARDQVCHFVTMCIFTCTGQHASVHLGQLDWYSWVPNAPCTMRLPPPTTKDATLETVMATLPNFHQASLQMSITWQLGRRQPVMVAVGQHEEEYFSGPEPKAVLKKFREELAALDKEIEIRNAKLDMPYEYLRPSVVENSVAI
Assay: 15-LOX-1 activity assay, UV-absorbance change for linoleic acid conversion
Type: biochemical
Parameters: His-tag (N); made in house; host or cells: E. coli BL21(DE3)
Details: for IC50: 10 min pre-incubation at RT, 25 µM linoleic acid, absorbance 234 nm; for Hill-slope: linoleic acid conversion assay
Text: In brief, an alkyne‐alcohol was linked to propargyl halide (Cl or Br) using a CuI‐catalyzed Sonogashira cross‐coupling reaction followed by biotinylation of the alcohol using EDCI and HOBt as reagents to provide the desired biotinylated bis‐alkyne probes. The biotinylated bis‐alkynes were subjected to 15‐LOX‐1 binding studies using a 15‐LOX‐1 activity assay based on the UV‐absorbance change for linoleic acid conversion (Figure 1 a). […] Next, we evaluated the effect of the extension of the terminal ethyl substitution of inhibitor 1. […]
empty plasmid was proceed with the same procedure, which lysate was used as the negative control (referred as BL21 control later) in 15-LOX-1 recombinant enzyme inhibition studies.
1.3. Purification of recombinant human 15-LOX-1
The 15-LOX-1 with N-terminal his-tag was produced as described above. After removing the cell debris, the supernatant containing 15-LOX-1 was loaded on a Ni-NTA column (Qiagen, Hilden, Germany) pre-equilibrated with LOX lysis buffer. The column was washed twice with 30 column volume of LOX lysis buffer, and once with 30 column volume of wash buffer (25 mM HEPES, 300 mM NaCl, 25 mM Imidazole, pH 8.0). Later, the 15-LOX-1 was eluted twice with 2 column volume of elution buffer (25 mM HEPES, 300 mM NaCl, 250 mM Imidazole, pH 8.0), followed by desalting with a PD-10 column (Sigma-Aldrich) with LOX storage buffer (25 mM HEPES, 20% Glycerol, pH 7.5). The desalted 15-LOX-1 was further purified and concentrated with Vivaspin Turbo 15 (30.000 MWCO). The protein concentration was determined by Nanodrop spectrophotometry. The 100 μl aliquots of 15-LOX-1 were stored at -20 for further experiments.
15-LOX-1 recombinant enzyme inhibition assay
The 15-LOX-1 inhibition assay has been detailed previously. Briefly, the conversion of linoleic acid to hydroperoxy-(9Z,11E)-octadecadienoic acid (λmax of 234 nm) was used to determine the activity of the 15-LOX-1 enzyme. The conversion rate was the slope of UV-absorbance at 234 nm overtime at the […]
To determine the IC50 of probes, the cell lysate was pre-diluted in LOX assay buffer at a ratio of 1:160. The inhibition assay was done in an F-bottom UV-STAR 96-well plate, in which 50 µl of the diluted enzyme was incubated with 140 µl of a probe diluted in LOX assay buffer for 10 min at room temperature (RT). Later 10 µl of 500 µM linoleic acid dissolved in ethanol was added to the plate to reach a final concentration of 25 µM. The UV-absorbance at 234 nm was determined by a BioTek Synergy H1 plate reader (BioTek, Winooski, VT, USA) . The slope of the 15-LOX-1 sample untreated with the probe was set as 100%, while the slope of the BL21 control sample was set as 0%.
For the determination of enzyme kinetics, a series concentration of linoleic acid was used. Fifty µl of pre-diluted 15-LOX-1 enzyme was incubated with 140 µl of probe solution at a fixed concentration for 10 min at RT. Subsequently, 10 µl of a series concentration of linoleic acid was added to a final concentration ranging from 10 µM to 100 µM. The conversion rate was calculated as the same as […]
described in the IC50 determination assay. Michaelis-Menten plots, Lineweaver-Burk plots, Km, and Vmax, are generated using GraphPad Prism 8.3.0. […]

Row | Mode of inhibition (Lineweaver–Burk plots) (Km constant, Vmax decreases with inhibitor concentration) | Compound | IC50 | Hill-slope
1 | – | c1ccc2c(c1)SCc1c-2[nH]c2ccccc12 [PD146176] | ~4 µM | 1
2 | non‐competitive LOX inhibition | CCCCCC#CCC#CCOC(=O)CCCC[C@@H]1SC[C@@H]2NC(=O)N[C@@H]21 [Labelox B (3)] | 0.62 µM and 0.6 µM | –
3 | – | O=c1cc(-c2ccccc2)oc2cc(O)c(O)c(O)c12 [Baicalein] | – | much higher
